# Data published in patent US6551815B1, “In situ denitrification” (University of New Mexico, priority 1997, dated 2003).
# Where “and” joins values, the source holds several entries; their conditions need not be identical. Identical values can stand only once. Entries after “also recorded” stand apart in the source; their conditions may differ. Like-named read-outs stand apart in the source and are kept apart here.
# What was measured:
# [1] = test system: indigenous denitrifying bacteria naturally present in the groundwater; assay: Serum bottle denitrification of Tuba City groundwater amended with carbon and phosphorus sources; assay type: cell-based; conditions: for concentration (as high as) at which activity of denitrifiers was not inhibited: initial nitrate about 21 mM
# Procedure: In situ biological denitrification was studied as a groundwater remediation process with nitrogen as the final product at an UMTRA site in Tuba City, Ariz. Nitrate contaminated groundwater and soil from the contaminated field site were used, and in all experiments the initial nitrate concentration was about 1300 mg/L and the pH was 7.5-8. Denitrification was studied in a 2.5 L fermentor and in 120 mL serum bottles using a water to soil ratio of 100 mL/8 g and indigenous denitrifying bacteria naturally present in the groundwater. Oxygen was removed initially by purging with argon for 15 minutes. […] Nitrate, nitrite, carbon source, and pH changes were monitored during denitrification. Eh was indicated using a resazurin dye. […] For each carbon source, the stoichiometric equation is present, and a theoretical yield coefficient was determined from each stoichiometric equation.
# The water samples were kept in 1000 mL plastic bottles and reserved in a refrigerator.
# Chemicals used for phosphorus amendment included orthophosphate KH2PO4, trimetaphosphate Na3P3O9 (Sigma Co.) and polyphosphate (NaPO3)n (Aldrich Co.). All chemicals were A.C.S. reagent grade. Crushed sands were prepared by pulverizing the core samples (about 47 to 100 feet depth) from the Tuba City site using a pestle and mortar. This Navajo sandstone is a fine to fine grained unit with median grain size diameter (d50) about 0.11 mm. The sandstone was kept without contamination by organic chemicals.
# (§1) Stock solution mixtures with neutral pH and total volume less than 15 mL for denitrification amendment, including carbon source and phosphorus sources, 0.05 mL of a 0.2% resazurin solution (redox potential indicator), and 8 g crushed sand for part experiments, were added into a 160 mL serum bottle, which was then autoclaved at 121° C. (250° F.) for 20 min. Groundwater sample was added under aseptic environment after the bottle cooled down, and the serum bottle was sealed with a butyl rubber stopper and crimped with an aluminum seal. Total volume of the liquid was about 100 to 120 mL. The solution was then purged with argon gas through a 22 gauge long needle for 15 min to ensure that an anaerobic environment was maintained, and another needle was used for gas exhaustion at the same time. The exhaustion needle was taken out before the spinal needle was done, and the serum bottle was pressurized under 7-10 psig. To keep the gas phase sterile, a gas filter with 0.2 μm pore size was used. Serum bottles were kept either at room temperature about 23±1° C. and shaken 2 to 3 times every day or kept at 16° C. in a Lindberg/Blue M constant temperature refrigerated shaker waterbath model RSWB3222A (A General Signal Company, NC). No denitrifying bacteria were inoculated to water samples, and pH was not controlled for all of the experiments. Denitrification process via the activity of the indigenous denitrifiers present in the groundwater was monitored. Disposable syringes were used for sampling.
# The IC unit, Dionex DX 500 chromatography system (Dionex Co., CA), consists of a GP 40-1 gradient pump, an ED 40-1 electrochemical detector, and a LC 10-2 chromatography organizer with an lonpac AS 11 analytical column (4 mm) and an ASRS-1 (4 mm) anion self-regenerating suppresser as its main components. This lonpac AS 11 4-mm analytical column with functional group of alkanol quaternary ammonium is designed to resolve a number of inorganic anions and organic acid anions from a single sample injection in one gradient run using hydroxide eluent systems such as NaOH used in our experiment.
# [2] = Phosphate precipitation in amended groundwater (serum bottles); assay type: physicochemical; conditions: for calcium phosphate precipitation as compared to orthophosphate: Tuba City groundwater
# Procedure: as §1, with “The solution was then purged with argon gas through a 22 gauge long needle for 15 min to ensure that an anaerobic environment was maintained, and another needle was used for gas exhaustion at the same time.” left out
# Triple serum bottle experiments were run in parallel at room temperature about 23±1° C.
# indigenous bacteria = assay: Batch denitrification of Mountainview groundwater; assay type: cell-based
# [3] = complete = <1 mg/L for N, core sand, KH2PO4, 23±1° C.
# [4] = groundwater with core sand, KH2PO4 100 mg/L, 23±1° C.
# [5] = serum bottles purged with argon
compound,measurement,setting,value
"CC(O)C(=O)[O-].[Na+] (stereo not shown) [Lactate, sodium lactate]",minimum C/N molar ratio for complete denitrification,[1]; [3],2
same,C/N molar ratio for nearly complete denitrification (Table 5),[1]; [4],2.000
same,"C/N molar ratio, minimum for nearly complete denitrification",[1]; [4],2.000
"O=P1([O-])OP(=O)([O-])OP(=O)([O-])O1.[Na+].[Na+].[Na+] [TMP, trimetaphosphate]",calcium phosphate precipitation as compared to orthophosphate,[2],reduced calcium phosphate precipitation
same,phosphate precipitate observed in groundwater,[2]; [5],"No phosphate precipitate was found in three weeks; also recorded: No phosphate precipitate was found while purging with argon, even in two weeks"
same,denitrification via indigenous bacteria,indigenous bacteria; groundwater amended with potassium acetate and 20 mg TMP/L,worked successfully
same,time to complete denitrification,"[1]; TMP 100 mg NaPO3/L and acetate, with sand, 16° C.",28 days
same,denitrification time longer than with orthophosphate,"[1]; TMP and acetate, with sand, 16° C.",11 days
"CCO [Ethanol, ethanol]",minimum C/N molar ratio for complete denitrification,[1]; [3],1.083
same,C/N molar ratio for nearly complete denitrification (Table 5),[1]; [4],1.083
same,"C/N molar ratio, minimum for nearly complete denitrification",[1]; [4],1.083
same,concentration (as high as) at which activity of denitrifiers was not inhibited,[1],25 mM
same,denitrification time,"[1]; orthophosphate, whole group of experiments finished, FIG. 5(f)",about 3.5 weeks
same,time at which nitrate reduction completed or stopped,"[1]; polyphosphate 100 mg NaPO3/L, core sand, argon purge, 23±1° C., ethanol insufficient for complete denitrification",about 30 days
"O=P(O)(O)O [orthophosphate, reference compound]",phosphate precipitate observed in groundwater,[2]; [5],Precipitate of orthophosphate (0.7-0.8 mM) formed
"CO [Methanol, methanol]",minimum C/N molar ratio for complete denitrification,[1]; [3],1
same,C/N molar ratio for nearly complete denitrification (Table 5),[1]; [4],1.000
same,"C/N molar ratio, minimum for nearly complete denitrification",[1]; [4],1.000
same,concentration (as high as) at which activity of denitrifiers was not inhibited,[1],45 mM
polyphosphate,calcium phosphate precipitation as compared to orthophosphate,[2],reduced calcium phosphate precipitation
same,phosphate precipitate observed in groundwater,"[2]; acetate and polyphosphate, no core sand, without purging with argon",Phosphate precipitate was not found; also recorded: White precipitates were not found until a week later
same,phosphate precipitate observed in groundwater,[2]; [5],precipitate was found right after purging with argon; also recorded: white precipitates appeared while purging with argon
"CC(=O)[O-].[K+] [Acetate, potassium acetate]",denitrification via indigenous bacteria,indigenous bacteria; potassium acetate without TMP,did not work
same,C/N molar ratio for nearly complete denitrification (Table 5),[1],1.425
same,"C/N molar ratio, minimum for nearly complete denitrification",[1],1.425
same,Denitrification efficiency,[1],0% and 7-10%
same,minimum C/N molar ratio for complete denitrification,[1],1.425
same,nitrate reduced after two months,[1],5%
